One data set has as its target FITC-αSyn (human) (UniProt P37840). Kind of data set: MST.
The target in data set [1] is human recombinant αSyn pre-formed fibrils (PFF) (Type 1) (human). Kind of data set: MST.
In the next data set the test system is αSyn–ClpP binding. The data set is described as follows: Immunoprecipitation of recombinant ClpP and αSyn in vitro. Further details: species or system human. The settings on record: recombinant ClpP pre-incubated with peptide 30 min before αSyn; anti-ClpP IP; 3 independent experiments. Here is the method: The human recombinant WT- (#S-1001-2), A53T- (#S-1001-2), ΔNAC- (#S-1015-1) and ΔC- (#S-1012-1) αSyn and FITC-αSyn (S-1113-2) were purchased from rPeptide. The human recombinant αSyn pre-formed fibrils (PFF) (Type 1) (SPR-322) and ATTO-594-PFF (SPR-322B-A594) were purchased from StressMarq Biosciences (Bioactivity has been widely validated via various approaches, e.g. TEM, ThT).
(§1) Cells or tissues were lysed in total lysis buffer (50mM Tris-HCl, pH 7.5, 150mM NaCl, 1% Triton X-100, and protease inhibitor). Total protein lysates (800 µg) were incubated with the indicated antibodies overnight at 4 °C followed by the addition of protein A/G beads (sc-2003, Santa Cruz) for 2 h at 4 °C. Various recombinant αSyn and Clpp (500 ng) were incubated in in vitro interaction buffer (20mM Tris-HCl pH 7.5, 100mM KCl, 2mM MgCl2 and 0.1% Triton-X100) for 30 min at room temperature, and then incubated with indicated antibodies overnight at 4 °C followed by the addition of protein A/G beads for 2 h at 4 °C. The beads with immuno-precipitates were pulled down at 4000 g and washed four times with total lysis buffer/in vitro interaction buffer in the presence of 0.1% Triton X-100 and were analyzed by western blot analysis.

In the next data set the test system is ClpP–αSyn interaction. Kind of data set: Co-immunoprecipitation of ClpP with αSyn constructs in HEK293T cell lysates. It is filed as cell-based. The method, then: Myc-tagged WT- and A53T- αSyn, Myc-tagged ClpP, and Flag-tagged WT- and S153A- ClpP plasmids were self-constructed as previously described (Ref). To construct truncated-αSyn plasmids, pcDNA3.1(-) was digested with BsteII and XbaI, and ΔN-, ΔC- and ΔNAC-αSyn was PCR-amplified using self-designed primers and inserted into the plasmid backbone. Cells were transfected with TransIT-2020 (Mirus Bio, LLC) following the manufacturer’s protocol.
as §1
Shown are representative blots of 3 independent experiments. Quantification of the ratio of αSyn over ClpP (pull-down) (n = 4, two-tailed Student’s t test, data are mean ± SEM).

The test system of the next data set is ClpP (HEK293T cells). The data set is described as follows: ClpP protein level, western blot, HEK293T cells. The format is cell-based. The settings on record: WT or A53T αSyn overexpression; 30 min pretreatment; n = 4–5 (CS1: n = 4). (In general: A western blot detects proteins with antibodies after separation by electrophoresis.)
For the next data set, the system named is ClpP (SH-SY5Y cells). Kind of data set: ClpP protein level, western blot, SH-SY5Y cells. The format is cell-based. The settings on record: WT or A53T αSyn overexpression; 30 min pretreatment; n = 4–5 (CS1: n = 4).
For data set [2], the system named is αSyn oligomerization (VN/VC-αSyn), SH-SY5Y cells. Kind of data set: BiFC split-Venus αSyn oligomerization in SH-SY5Y cells. The format is cell-based. An excerpt:
To construct truncated-αSyn plasmids, pcDNA3.1(-) was digested with BsteII and XbaI, and ΔN-, ΔC- and ΔNAC-αSyn was PCR-amplified using self-designed primers and inserted into the plasmid backbone. Cells were transfected with TransIT-2020 (Mirus Bio, LLC) following the manufacturer’s protocol.
(§2) The bimolecular fluorescence was examined 24-hour after transfection (n = 3, one-way ANOVA with Tukey’s post-hoc test, scale bar = 30 μm). (D) Quantification of the concentration (ng/ml) of extracellular αSyn monomer and oligomer, and intracellular αSyn oligomer in Tet-inducible SH-SY5Y cells that were pre-treated with TAT or CS2 peptide 30-minute before adding doxycycline (Dox) to induce αSyn expression. The concentration of αSyn species was determined by ELISA (n = 4, one-way ANOVA with Tukey’s post-hoc test; data are mean ± SEM). (E) Representative images of Mito-SOX staining in SH-SY5Y cells that were pre-treated with TAT or CS2 peptide and transfected with split Venus-αSyn vectors. Mitochondrial ROS production was determined by Mito-SOX staining after 24-hour transfection (n = 4, two-tailed Student’s t test, scale bar = 30 μm).
The bimolecular fluorescence was examined 24-hour after the transfection and quantitated (n = 14 areas/group, one-way ANOVA with Tukey’s post-hoc test, data are mean ± SEM).

For a further data set, the system named is SH-SY5Y cells. The data set is described as follows: Mitochondrial ROS (Mito-SOX) in SH-SY5Y cells. It is filed as cell-based. The settings on record: SH-SY5Y expressing VN/VC-αSyn (CS1: WT αSyn); Mito-SOX 5 µM; vs TAT. The method, then: Cells cultured on coverslips or 24-well plates were washed with DPBS and then incubated with 5 µM Mito-SOX™ Red (Invitrogen, M36008), a mitochondrial superoxide indicator, for 10 min at 37 °C. For cells cultured on coverslips, the images were visualized by microscope, and quantification of images was then carried out using NIH ImageJ software. At least 100 cells per group were counted in the analysis.
as §2

Data set [3] deals with αSyn PFF-seeded aggregation. The data set is described as follows: αSyn ThT assay, PFF-seeded aggregation with recombinant ClpP. The settings on record: ClpP 5/10 µM; αSyn PFF 1 µM; ThT 1 µM; PBS pH 7.4, 37 °C, 500 rpm, up to 48 h; ex 450 nm / em 485 nm; n = 4. The format is biochemical, human. The method, then:
αSyn monomer (5µM) and PFF (1µM) were incubated with recombinant ClpP (5/10µM) and Thioflavin T (ThT) (1µM) in 100 µl PBS (pH 7.4) at 37 °C in a shaking incubator (500 rpm). ThT fluorescence was measured (excitation 450 nm, emission 485 nm) every 15 min up to 48 h.
Fig. 1 ClpP modulates αSyn tetramer and aggregates. […] (B) Western blot and quantification of αSyn tetramer/monomer ratio and oligomer/monomer ratio, upon intact cell DSG-crosslinking, in HEK293T cells overexpressing Myc-tagged WT αSyn with EV or Flag-tagged S153A-ClpP (n = 4–5, two-tailed Student’s t test). (C) Fluorescent images and quantification of αSyn aggregation in SH-SY5Y cells overexpressing EV or ClpP with vectors expressing Venus-N-αSyn (VN) and αSyn-C-Venus (VC) (n = 7, two-tailed Student’s t test, Scale bar = 10 μm). (D) Fluorescent images and quantification of αSyn aggregation in control knock-down (Consh) or ClpP knock-down (ClpPsh) SH-SY5Y cells overexpressing VN and VC (n = 4, two-tailed Student’s t test, Scale bar = 10 μm). (E) In vitro αSyn PFF (1µM) – seeded aggregation in the absence (control) or presence of ClpP (5/10µM) was monitored by thioflavin T (ThT) fluorescence (n = 4, two-tailed Student’s t test). […]

“Decoy peptide CS2 (TAT-C6-GGVVTA) (from UniProt P04608 47-57)”: the equilibrium dissociation constant (Kd) with FITC-αSyn (human) was determined as 7 µM; in data set [1], 4 µM.

For TAT-C6-GAVVTG [CS1, decoy peptide], in the data set on αSyn–ClpP binding, the “αSyn–ClpP binding, recombinant” value was “no effect”. Besides, in the data set on ClpP–αSyn interaction (HEK293T lysates, Flag-ClpP + Myc-ΔC-αSyn), the “ClpP binding to ΔC-αSyn” value is recorded as “not CS1, abolished the binding”. In the data set with ClpP–αSyn interaction (HEK293T lysates, Flag-ClpP + Myc-ΔN-αSyn), the “ClpP binding to ΔN-αSyn” value was “not CS1, abolished the binding”. For the same substance, the “ClpP binding to WT-αSyn” value in the data set with ClpP–αSyn interaction (HEK293T lysates, WT αSyn, CS2: 24-hour treatment) is given as “not CS1, abolished the binding”. Also, the “αSyn-ClpP interaction, discussion summary” value in the data set on ClpP–αSyn interaction (in vitro or in vivo) is on record as “no effect, either in vitro or in vivo”. The “ClpP protein level, HEK293T” value in the data set on ClpP (HEK293T cells) is “failed to restore ClpP expression”. Also, the “ClpP protein level, SH-SY5Y” value in the data set with ClpP (SH-SY5Y cells) is “failed to restore ClpP expression”. The “BiFC signal / αSyn oligomerization” value in data set [2] (SH-SY5Y expressing VN/VC-αSyn, 24-hour after transfection) was “failed to restore ClpP expression (Fig. S4A and B), reduce αSyn oligomerization”. Moreover, the “αSyn aggregation, discussion summary” value in data set [2] (in vitro or in vivo) is reported as “no effect, either in vitro or in vivo”. Further, the “mitochondrial ROS (Mito-SOX intensity)” value in the data set on SH-SY5Y cells is “failed to restore ClpP expression (Fig. S4A and B), reduce αSyn oligomerization (Fig. S4C), or suppress ROS”.

Regarding “recombinant ClpP protein: human recombinant ClpP obtained from Dr. Aaron Schimmer”, the PFF-ThT fluorescence result in [3] is “dose-dependent suppression of PFF-ThT fluorescence intensity”.

One may read the Kd as the free concentration of one partner at which half of the binding sites on the other are occupied at equilibrium, for simple one-to-one binding.

The values above are taken from article PMC12751141, “Disrupting α-Synuclein–ClpP interaction restores mitochondrial function and attenuates neuropathology in Parkinson’s disease models” (Molecular Neurodegeneration, 2025).
